Patent US7531355B2, “Methods and compositions for smooth muscle reconstruction” (The Regents of the University of California, priority 2005, dated 2009)

Columns and labels:
[1] = test system: undifferentiated PLA; experiment: Smooth muscle contraction in vitro assay (collagen gel), control cells; format: cell-based
Experimental: (§1) A mixture of 50% collagen solution (Vitrogen), 25% 4×DMEM with supplemented sodium bicarbonate prepared from powder (Gibco), ˜5 μl volume of glass bead (120-150 μm soda lime microspheres in light blue color) were added to approximately 5×10^5 cells (smooth muscle cells differentiated from ADSCs, although other cell types were utilized as negative controls) to a total volume of 400 μl was prepared on ice. The slurry was transferred to a 24-well plate (with calculated resulting thickness of around 2 mm) and the gel was allowed to polymerize in the 37° C. incubator overnight. Appropriate cell culture medium was added the next day to supplement cell growth, e,.g., smooth muscle medium was added to smooth muscle cells or adipogenic medium was added to adipose cells. The gel was incubated again for another night.
(§2) The following day (2 days after casting the gel) the gel was partially released (i.e., about 280° around the circumference of the well) from the tissue culture well by gently pulling the gel away from the side of the well with a pipette. Carbachol (an acetylcholine agonist) was added to the partially released gel. Response to addition of the drug was monitored by use of a microscope connected to a real-time camera.
(§3) Murine NIH 3T3 (fibroblasts ) or undifferentiated PLA cells were run concurrently as controls.
(§4) Pictures were taken before the gel was released at marked fields. […]

[2] = test system: fibroblasts (NIH 3T3); experiment: as above; format: cell-based, Murine; conditions: control cells NIH 3T3
Experimental: as §1, §2, §3, §4

[3] = test system: smooth muscle cells differentiated from ADSCs; experiment: Smooth muscle contraction in vitro assay (collagen gel); format: cell-based
Experimental: as §1, §2
Pictures were taken before the gel was released at marked fields. The gel was released with a pipette tip about 280° around the wall of the well. […]

In the case of C[N+](C)(C)CCOC(N)=O [Carbachol], the “contractile response of gel to the agent” value [1] is reported as “very weak response” and the “contractile response of gel to the agent” value [2] is reported as “very weak response”.

In the case of CNC[C@H](O)c1cccc(O)c1 [Phenylephrine], the “contractile response of gel to the agent” value ([3]; agent added to partially released gel) is reported as “shown to contract gels”.

With CC(C)NCC(O)COc1cccc2ccccc12 (stereo not drawn) [Propranolol] the “effect on contractile response to isoproterenol” value ([3]; added beforehand) was “reduced the contractile response”.

For CC(C)NCC(O)c1ccc(O)c(O)c1 (stereo not drawn) [isoproterenol], the “contractile response of gel to the agent” value [1] was “no response” and the “contractile response of gel to the agent” value [2] was “no response”.
